biological target: human MGL from HeLa cells (Homo sapiens (Human), UniProt Q99685); test: MGL in vitro activity assay: cleavage of [glycerol-1,3-3H]-oleyl glycerol, activated carbon filtration; assay type: biochemical; settings: 300 nM [Glycerol-1,3-3H]-oleyl glycerol, endogenously expressed MGL from HeLa cells, one hour incubation
Procedure: The assay used to measure the in vitro activity of MGL is adapted from the assay used for another serine hydrolase (FAAH) described in Wilson et al., 2003 (A high-throughput-compatible assay for determining the activity of fatty acid amide hydrolase. Wilson S J, Lovenberg T W, Barbier A J. Anal Biochem. 2003 Jul. 15; 318(2):270-5.). The assay consists of combining endogenously expressed MGL from HeLa cells with test compounds, adding [glycerol-1,3-^3H]-oleyl glycerol, incubating for one hour, and then measuring the amount of cleaved [1,3-^3H]-glycerol that passes through an activated carbon filter. The amount of cleaved, tritiated glycerol passing through the carbon filter is proportional to the activity of the MGL enzyme in a particular well/test condition.
Standard conditions for this assay combine 300 nM [Glycerol-1,3-^3H]-oleyl glycerol with human MGL from HeLa cells and test compounds for one hour, after which the reaction is filtered through activated carbon and tritium is measured in the flow through. The test compound concentration in screening mode is 10 μM, while the highest compound concentration in IC50 assays is determined empirically. MGL is the predominant hydrolase in HeLa cells/cell homogenates.

human MGL from HeLa cells, sequence (Q99685 whole entry): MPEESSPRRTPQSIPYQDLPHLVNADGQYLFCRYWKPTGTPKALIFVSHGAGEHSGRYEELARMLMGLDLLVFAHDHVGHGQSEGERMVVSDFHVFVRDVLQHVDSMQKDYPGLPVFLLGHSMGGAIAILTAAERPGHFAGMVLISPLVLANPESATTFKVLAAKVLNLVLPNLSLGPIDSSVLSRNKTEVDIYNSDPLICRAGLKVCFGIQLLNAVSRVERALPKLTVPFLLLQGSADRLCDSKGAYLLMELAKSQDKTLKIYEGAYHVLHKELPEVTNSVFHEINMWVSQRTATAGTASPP

| Structure (SMILES) | IC50 |
| --- | --- |
| Cc1ccc(C(=O)N2[C@@H]3CCC[C@H]2c2nn(C)c(-c4cc(C)nn4C)c2C3)c(F)c1 (stereo in doubt) [Example 72, ((5R,9S)-3-(1,3-Dimethyl-1H-pyrazol-5-yl)-2-methyl-4,5,6,7,8,9-hexahydro-2H-5,9-epiminocycloocta[c]pyrazol-10-yl)(2-fluoro-4-methylphenyl)methanone] | 1130 nM |
| COc1cccc(C(=O)N2[C@@H]3CCC[C@H]2c2nn(C)c(-c4cc(C)nn4C)c2C3)c1C (stereo in doubt) [Example 73, ((5R,9S)-3-(1,3-Dimethyl-1H-pyrazol-5-yl)-2-methyl-4,5,6,7,8,9-hexahydro-2H-5,9-epiminocycloocta[c]pyrazol-10-yl)(3-methoxy-2-methylphenyl)methanone] | 230 nM |
| COc1cccc(C(=O)N2[C@@H]3CCC[C@H]2c2nn(C)c(-c4cc(C(F)(F)F)nn4C)c2C3)c1C (stereo in doubt) [Example 74, (3-Methoxy-2-methylphenyl)((5R,9S)-2-methyl-3-(1-methyl-3-(trifluoromethyl)-1H-pyrazol-5-yl)-4,5,6,7,8,9-hexahydro-2H-5,9-epiminocycloocta[c]pyrazol-10-yl)methanone] | 19 nM |
| Cn1nc(C(F)(F)F)cc1-c1c2c(nn1C)[C@@H]1CCC[C@H](C2)N1C(=O)c1ccc2c(c1)OCCC2 (stereo in doubt) [Example 75, Chroman-7-yl((5R,9S)-2-methyl-3-(1-methyl-3-(trifluoromethyl)-1H-pyrazol-5-yl)-4,5,6,7,8,9-hexahydro-2H-5,9-epiminocycloocta[c]pyrazol-10-yl)methanone] | 44 nM |
| Cc1cccc(C(=O)N2[C@@H]3CCC[C@H]2c2nn(C)c(-c4cc(C(F)(F)F)nn4C)c2C3)c1 (stereo in doubt) [Example 76, ((5R,9S)-2-Methyl-3-(1-methyl-3-(trifluoromethyl)-1H-pyrazol-5-yl)-4,5,6,7,8,9-hexahydro-2H-5,9-epiminocycloocta[c]pyrazol-10-yl)(m-tolyl)methanone] | 68 nM |
| COc1cc(C)cc(C(=O)N2[C@@H]3CCC[C@H]2c2nn(C)c(-c4cc(C(F)(F)F)nn4C)c2C3)c1 (stereo in doubt) [Example 77, (3-Methoxy-5-methylphenyl)((5R,9S)-2-methyl-3-(1-methyl-3-(trifluoromethyl)-1H-pyrazol-5-yl)-4,5,6,7,8,9-hexahydro-2H-5,9-epiminocycloocta[c]pyrazol-10-yl)methanone] | 26 nM |
| Cc1ccc2c(C(=O)N3CCc4c(nn(C)c4-c4cc(C(F)(F)F)nn4C)[C@@H]3C)cccc2n1 [Example 1, (S)-(2,7-Dimethyl-3-(1-methyl-3-(trifluoromethyl)-1H-pyrazol-5-yl)-2,4,5,7-tetrahydro-6H-pyrazolo[3,4-c]pyridin-6-yl)(2-methylquinolin-5-yl)methanone] | 35 nM |
| COc1cccc(C(=O)N2CCc3c(nn(C)c3-c3c(C)cnn3C)[C@@H]2C)c1C [Example 2, (S)-(3-(1,4-Dimethyl-1H-pyrazol-5-yl)-2,7-dimethyl-2,4,5,7-tetrahydro-6H-pyrazolo[3,4-c]pyridin-6-yl)(3-methoxy-2-methylphenyl)methanone] | 10000 nM |
| COc1cccc(C(=O)N2CCc3c(nn(C)c3-c3c(C(F)(F)F)nn(C)c3C)[C@@H]2C)c1C [Example 3, (S)-(3-(1,5-Dimethyl-3-(trifluoromethyl)-1H-pyrazol-4-yl)-2,7-dimethyl-2,4,5,7-tetrahydro-6H-pyrazolo[3,4-c]pyridin-6-yl)(3-methoxy-2-methylphenyl)methanone] | 6700 nM |
| C[C@H]1c2nn(C)c(-c3cc(C(F)(F)F)nn3C)c2CCN1C(=O)c1cccc(N2CC3(COC3)C2)c1Cl [Example 4, (S)-(2-Chloro-3-(2-oxa-6-azaspiro[3.3]heptan-6-yl)phenyl)(2,7-dimethyl-3-(1-methyl-3-(trifluoromethyl)-1H-pyrazol-5-yl)-2,4,5,7-tetrahydro-6H-pyrazolo[3,4-c]pyridin-6-yl)methanone] | 20 nM |
| C[C@H]1c2nn(C)c(-c3cc(C(F)(F)F)nn3C)c2CCN1C(=O)c1c[nH]c2cccc(F)c12 [Example 5, (S)-(2,7-dimethyl-3-(1-methyl-3-(trifluoromethyl)-1H-pyrazol-5-yl)-2,4,5,7-tetrahydro-6H-pyrazolo[3,4-c]pyridin-6-yl)(4-fluoro-1H-indol-3-yl)methanone] | 37 nM |
| C[C@H]1c2nn(C)c(-c3cc(C(F)(F)F)nn3C)c2CCN1C(=O)c1nn(C)c2ccccc12 [Example 6, (S)-(2,7-Dimethyl-3-(1-methyl-3-(trifluoromethyl)-1H-pyrazol-5-yl)-2,4,5,7-tetrahydro-6H-pyrazolo[3,4-c]pyridin-6-yl)(1-methyl-1H-indazol-3-yl)methanone] | 37 nM |
| Cc1cccn2ncc(C(=O)N3CCc4c(nn(C)c4-c4cc(C(F)(F)F)nn4C)[C@@H]3C)c12 [Example 7, (S)-(2,7-Dimethyl-3-(1-methyl-3-(trifluoromethyl)-1H-pyrazol-5-yl)-2,4,5,7-tetrahydro-6H-pyrazolo[3,4-c]pyridin-6-yl)(4-methylpyrazolo[1,5-a]pyridin-3-yl)methanone] | 50 nM |
| Cc1cccc2ncc(C(=O)N3CCc4c(nn(C)c4-c4cc(C(F)(F)F)nn4C)[C@@H]3C)n12 [Example 8, (S)-(2,7-Dimethyl-3-(1-methyl-3-(trifluoromethyl)-1H-pyrazol-5-yl)-2,4,5,7-tetrahydro-6H-pyrazolo[3,4-c]pyridin-6-yl)(5-methylimidazo[1,2-a]pyridin-3-yl)methanone] | 8.9 nM |
| Cc1cc(C(=O)N2CCc3c(nn(C)c3-c3cc(C(F)(F)F)nn3C)[C@@H]2C)c2ccccc2n1 [Example 9, (S)-(2,7-Dimethyl-3-(1-methyl-3-(trifluoromethyl)-1H-pyrazol-5-yl)-2,4,5,7-tetrahydro-6H-pyrazolo[3,4-c]pyridin-6-yl)(2-methylquinolin-4-yl)methanone] | 12 nM |
| Cc1cc(C(=O)N2CCc3c(nn(C)c3-c3cc(C(F)(F)F)nn3C)[C@@H]2C)c2cc(F)ccc2n1 [Example 10, (S)-(2,7-Dimethyl-3-(1-methyl-3-(trifluoromethyl)-1H-pyrazol-5-yl)-2,4,5,7-tetrahydro-6H-pyrazolo[3,4-c]pyridin-6-yl)(6-fluoro-2-methylquinolin-4-yl)methanone] | 18 nM |
| C[C@H]1c2nn(C)c(-c3cc(C(F)(F)F)nn3C)c2CCN1C(=O)c1cnn2cccc(F)c12 [Example 11, (S)-(2,7-Dimethyl-3-(1-methyl-3-(trifluoromethyl)-1H-pyrazol-5-yl)-2,4,5,7-tetrahydro-6H-pyrazolo[3,4-c]pyridin-6-yl)(4-fluoropyrazolo[1,5-a]pyridin-3-yl)methanone] | 6.2 nM |
| C[C@H]1c2nn(C)c(-c3cc(C(F)(F)F)nn3C)c2CCN1C(=O)c1ccnc2c1ccn2CC(F)(F)F [Example 12, (S)-(2,7-Dimethyl-3-(1-methyl-3-(trifluoromethyl)-1H-pyrazol-5-yl)-2,4,5,7-tetrahydro-6H-pyrazolo[3,4-c]pyridin-6-yl)(1-(2,2,2-trifluoroethyl)-1H-pyrrolo[2,3-b]pyridin-4-yl)methanone] | 100 nM |
| Cc1nc2ccccc2cc1C(=O)N1CCc2c(nn(C)c2-c2cc(C(F)(F)F)nn2C)[C@@H]1C [Example 13, (S)-(2,7-Dimethyl-3-(1-methyl-3-(trifluoromethyl)-1H-pyrazol-5-yl)-2,4,5,7-tetrahydro-6H-pyrazolo[3,4-c]pyridin-6-yl)(2-methylquinolin-3-yl)methanone] | 220 nM |
| COc1ccc(C(=O)N2CCc3c(nn(C)c3-c3cc(C(F)(F)F)nn3C)[C@@H]2C)c2cccnc12 [Example 14, (S)-(2,7-Dimethyl-3-(1-methyl-3-(trifluoromethyl)-1H-pyrazol-5-yl)-2,4,5,7-tetrahydro-6H-pyrazolo[3,4-c]pyridin-6-yl)(8-methoxyquinolin-5-yl)methanone] | 15 nM |
| Cc1cc(C(=O)N2CCc3c(nn(C)c3-c3cc(C(F)(F)F)nn3C)[C@@H]2C)c2cnn(C)c2n1 [Example 15, (S)-(1,6-Dimethyl-1H-pyrazolo[3,4-b]pyridin-4-yl)(2,7-dimethyl-3-(1-methyl-3-(trifluoromethyl)-1H-pyrazol-5-yl)-2,4,5,7-tetrahydro-6H-pyrazolo[3,4-c]pyridin-6-yl)methanone] | 56 nM |
| COc1nn(C)cc1-c1c2c(nn1C)[C@H](C)N(C(=O)c1ccc3ncccc3c1)CC2 [Example 16, (S)-(3-(3-Methoxy-1-methyl-1H-pyrazol-4-yl)-2,7-dimethyl-2,4,5,7-tetrahydro-6H-pyrazolo[3,4-c]pyridin-6-yl)(quinolin-6-yl)methanone] | 370 nM |
| C[C@H]1c2nn(C)c(-c3cc(C(F)(F)F)nn3C)c2CCN1C(=O)c1cnn2cc(F)cc(F)c12 [Example 17, (S)-(4,6-Difluoropyrazolo[1,5-a]pyridin-3-yl)(2,7-dimethyl-3-(1-methyl-3-(trifluoromethyl)-1H-pyrazol-5-yl)-2,4,5,7-tetrahydro-6H-pyrazolo[3,4-c]pyridin-6-yl)methanone] | 20 nM |
| C[C@H]1c2nn(C)c(-c3cc(C(F)(F)F)nn3C)c2CCN1C(=O)c1cnc2cc(F)cc(F)c2c1 [Example 18, (S)-(5,7-Difluoroquinolin-3-yl)(2,7-dimethyl-3-(1-methyl-3-(trifluoromethyl)-1H-pyrazol-5-yl)-2,4,5,7-tetrahydro-6H-pyrazolo[3,4-c]pyridin-6-yl)methanone] | 360 nM |

Reference: US11891387B2, “Monoacylglycerol lipase modulators” (Janssen Pharmaceutica NV, priority 2020, dated 2024)
